From US8846569B2, “Pesticidal bis-organosulfur compounds” (Merial Limited, priority 2009, dated 2014)
Read-outs that look alike come from different tables or passages of the source.

Legend:
Heliothis virescens = test: Tobacco budworm (Heliothis virescens) diet/egg test; type: in vivo; conditions: for mortality at 2500 ppm: Heliothis virescens, 120 h, read-out: mortality in comparison with untreated controls
Method: For evaluating control of tobacco budworm (Heliothis virescens) the test unit consisted of 96-well-microtiter plates containing an insect diet and 15-25 H. virescens eggs.
The compounds were formulated using a solution containing 75% v/v water and 25% v/v DMSO. Different concentrations of formulated compounds were sprayed onto the insect diet at 10 μl, using a custom built micro atomizer, at two replications.
(§1) After application, microtiter plates were incubated at about 28±1° C. and about 80±5% relative humidity for 5 days. Egg and larval mortality was then visually assessed.
The biological activity shown tables under CB.1 and CB.2 was evaluated on scale range from 0% as showing no biological activity to 100% as having total control. The biological tests were conducted as described above.

Ceratitis capitata = test: Mediterranean fruitfly (Ceratitis capitata) diet/egg test; type: in vivo; conditions: 120 h, read-out: mortality in comparison with untreated controls
Method: For evaluating control of Mediterranean fruitfly (Ceratitis capitata) the test unit consisted of microtiter plates containing an insect diet and 50-80 C. capitata eggs.
The compounds were formulated using a solution containing 75% v/v water and 25% v/v DMSO. Different concentrations of formulated compounds were sprayed onto the insect diet at 5 nl, using a custom built micro atomizer, at two replications.
as §1

Myzus persicae = test: Green peach aphid (Myzus persicae) artificial diet test; type: in vivo; conditions: 72 h, read-out: mortality in comparison with untreated controls
Source text: For evaluating control of green peach aphid (Myzus persicae) the test unit consisted of 96-well-microtiter plates containing liquid artificial diet under an artificial membrane.
The compounds were formulated using a solution containing 75% v/v water and 25% v/v DMSO. Different concentrations of formulated compounds were pipetted into the aphid diet, using a custom built pipetter, at two replications.
After application, 5-8 adult aphids were placed on the artificial membrane inside the microtiter plate wells. The aphids were then allowed to suck on the treated aphid diet and incubated at about 23±1° C. and about 50±5% relative humidity for 3 days. Aphid mortality and fecundity was then visually assessed.

Aedes aegypti = Aedes aegypti neonate larvae motility assay; type: in vivo; conditions: larval motility, dose response
Method: Compounds formulated in 100% DMSO are tested in microtiter plates containing 180 ul 1× Luria Broth media and 10 neonate A. aegypti larvae. The efficacy of a compound is determined based on the motility of the larvae as compared to average motility of control wells containing DMSO only. A dose response assay is conducted with compounds with >80% reduction in motility in the primary assay to determine an EC50 value. Selected compounds are advanced to insecticide secondary assays.

Megoura viciae = test: Vetch aphid (Megoura viciae) leaf disk test; type: in vivo; conditions: foliar, 120 h, read-out: mortality in comparison with untreated controls
Method: For evaluating control of vetch aphid (Megoura viciae) through contact or systemic means the test unit consisted of 24-well-microtiter plates containing broad bean leaf disks.
The compounds were formulated using a solution containing 75% v/v water and 25% v/v DMSO. Different concentrations of formulated compounds were sprayed onto the leaf disks at 2.5 μl, using a custom built micro atomizer, at two replications.
After application, the leaf disks were air-dried and 5-8 adult aphids placed on the leaf disks inside the microtiter plate wells. The aphids were then allowed to suck on the treated leaf disks and incubated at about 23±1° C. and about 50±5% relative humidity for 5 days. Aphid mortality and fecundity was then visually assessed.

Anthonomus grandis = test: Boll weevil (Anthonomus grandis) diet/egg test; type: in vivo; conditions: 120 h, read-out: mortality in comparison with untreated controls
Method: For evaluating control of boll weevil (Anthonomus grandis) the test unit consisted of 24-well-microtiter plates containing an insect diet and 20-30 A. grandis eggs.
The compounds were formulated using a solution containing 75% v/v water and 25% v/v DMSO. Different concentrations of formulated compounds were sprayed onto the insect diet at 20 μl, using a custom built micro atomizer, at two replications.
After application, microtiter plates were incubated at about 23±1° C. and about 50±5% relative humidity for 5 days. Egg and larval mortality was then visually assessed.

[1] = 2500 ppm, egg and larval mortality, 5 days
[2] = 2500 ppm, adult aphids on treated artificial diet, 3 days
[3] = 2500 ppm, adult aphids on sprayed broad bean leaf disks, 5 days

Row | melting point [°C] | SMILES | mortality at 2500 ppm (Ceratitis capitata; [1]) [%] | EC50 (Aedes aegypti) [µg/mL] | mortality at 2500 ppm (Anthonomus grandis; [1]) [%] | also measured
1 | – | N#CC(CCC(F)(F)F)S(=O)(=O)CCC(F)(F)C(F)(F)F (stereo not shown) [CE. 1, reference compound] | – | – | – | activity in [%] (Heliothis virescens; 800 ppm, scale 0% no biological activity to 100% total control): 0%
2 | – | CCOC(=O)C(CCSC(F)(F)F)S(=O)(=O)CCC(F)(F)C(F)(F)F (stereo not shown) [II-3, Ethyl 2-(3,3,4,4,4-Pentafluoro-butane-1-sulfonyl)-4-trifluoromethylsulfanyl-butyrate] | > 90 | < 5 | > 90 | mortality at 2500 ppm (Myzus persicae; [2]): > 90%; mortality at 2500 ppm (Megoura viciae; [3]): > 90%
3 | – | CCOC(=O)C(C)(CCSC(F)(F)F)S(=O)(=O)CCC(F)(F)C(F)(F)F (stereo not shown) [II-4, Ethyl 2-methyl-2-(3,3,4,4,4-pentafluoro-butane-1-sulfonyl)-4-trifluoromethylsulfanyl-butyrate] | > 90 | < 5 | > 90 | mortality at 2500 ppm (Myzus persicae; [2]): > 90%; mortality at 2500 ppm (Megoura viciae; [3]): > 90%
4 | 100 to 102 | N#CC(CCSC(F)(F)F)S(=O)(=O)Cc1cccc(C(F)(F)F)c1 (stereo not shown) [II-5, 2-(3-Trifluoromethyl-phenylmethanesulfonyl)-4-trifluoromethylsulfanyl-butyronitrile] | – | < 5 | – | –
5 | 92 to 94 | CC(C#N)(CCSC(F)(F)F)S(=O)(=O)Cc1cccc(C(F)(F)F)c1 (stereo not shown) [II-6, 2-Methyl-2-(3-trifluoromethyl-phenylmethanesulfonyl)-4-trifluoromethylsulfanyl-butyronitrile] | – | < 5 | – | –
6 | 122 to 124 | N#CC(CCSC(F)(F)F)S(=O)(=O)Cc1ccc(Cl)nc1 (stereo not shown) [II-7, 2-(6-Chloro-pyridin-3-ylmethanesulfonyl)-4-trifluoromethylsulfanyl-butyronitrile] | – | – | – | –
7 | 129 to 130 | N#CC(CCSC(F)(F)F)S(=O)(=O)Cc1ccc(C(F)(F)F)nc1 (stereo not shown) [II-9, 2-(6-Trifluoromethyl-pyridin-3-ylmethanesulfonyl)-4-trifluoromethylsulfanyl-butyronitrile] | – | – | – | –
8 | 109 to 110 | CC(C#N)(CCSC(F)(F)F)S(=O)(=O)Cc1ccc(C(F)(F)F)nc1 (stereo not shown) [II-10, 2-Methyl-2-(6-trifluoromethyl-pyridin-3-ylmethanesulfonyl)-4-trifluoromethylsulfanyl-butyronitrile] | – | – | – | –
9 | 153 to 155 | N#CC(CCSC(F)(F)F)S(=O)(=O)Cc1ccc(C(F)(F)F)cc1 (stereo not shown) [II-11, 2-(4-Trifluoromethyl-phenylmethanesulfonyl)-4-trifluoromethylsulfanyl-butyronitrile] | – | – | – | –
10 | 102 to 104 | CC(C#N)(CCSC(F)(F)F)S(=O)(=O)Cc1ccc(C(F)(F)F)cc1 (stereo not shown) [II-12, 2-Methyl-2-(4-trifluoromethyl-phenylmethanesulfonyl)-4-trifluoromethylsulfanyl-butyronitrile] | – | – | – | –
11 | 65 to 67 | N#CC(CCSC(F)(F)F)S(=O)(=O)Cn1ccc(C(F)(F)F)n1 (stereo not shown) [II-13, 2-(3-Trifluoromethyl-pyrazol-1-ylmethanesulfonyl)-4-trifluoromethylsulfanyl-butyronitrile] | – | – | – | –
12 | – | CC(C#N)(CCSC(F)(F)F)S(=O)(=O)Cn1ccc(C(F)(F)F)n1 (stereo not shown) [II-14, 2-Methyl-2-(3-trifluoromethyl-pyrazol-1-ylmethanesulfonyl)-4-trifluoromethylsulfanyl-butyronitrile] | > 90 | – | > 90 | –
13 | – | N#CC(CCSC(F)(F)F)SCCC(F)(F)C(F)(F)F (stereo not shown) [II-15, 2-(3,3,4,4,4-Pentafluoro-butylsulfanyl)-4-trifluoromethylsulfanyl-butyronitrile] | > 90 | < 5 | > 90 | mortality at 2500 ppm (Heliothis virescens; [1]): > 90%; mortality at 2500 ppm (Myzus persicae; [2]): > 90%; mortality at 2500 ppm (Megoura viciae; [3]): > 90%
14 | – | N#CC(CCSC(F)(F)F)[S+]([O-])CCC(F)(F)C(F)(F)F (stereo not shown) [II-16, 2-(3,3,4,4,4-Pentafluoro-butane-1-sulfinyl)-4-trifluoromethylsulfanyl-butyronitrile] | > 90 | – | > 90 | mortality at 2500 ppm (Myzus persicae; [2]): > 90%; mortality at 2500 ppm (Megoura viciae; [3]): > 90%
15 | – | CCC(C#N)(CCSC(F)(F)F)S(=O)(=O)CCC(F)(F)C(F)(F)F (stereo not shown) [II-17, 2-Ethyl-2-(3,3,4,4,4-pentafluoro-butane-1-sulfonyl)-4-trifluoromethylsulfanyl-butyronitrile] | > 90 | < 5 | > 90 | mortality at 2500 ppm (Heliothis virescens; [1]): > 90%; mortality at 2500 ppm (Myzus persicae; [2]): > 90%
16 | – | CCCC(C#N)(CCSC(F)(F)F)S(=O)(=O)CCC(F)(F)C(F)(F)F (stereo not shown) [II-18, 2-(3,3,4,4,4-Pentafluoro-butane-1-sulfonyl)-2-(2-trifluoromethylsulfanyl-ethyl)-pentanenitrile] | > 90 | < 5 | > 90 | –
17 | – | CC(CCSC(F)(F)F)(C(=O)O)S(=O)(=O)CCC(F)(F)C(F)(F)F (stereo not shown) [II-19, 2-Methyl-2-(3,3,4,4,4-pentafluoro-butane-1-sulfonyl)-4-trifluoromethylsulfanyl-butyric acid] | – | – | > 90 | mortality at 2500 ppm (Megoura viciae; [3]): > 90%
18 | – | CC(CCSC(F)(F)F)(C(N)=O)S(=O)(=O)CCC(F)(F)C(F)(F)F (stereo not shown) [II-20, 2-Methyl-2-(3,3,4,4,4-pentafluoro-butane-1-sulfonyl)-4-trifluoromethylsulfanyl-butyramide] | > 90 | – | > 90 | –
19 | – | CNC(=O)C(C)(CCSC(F)(F)F)S(=O)(=O)CCC(F)(F)C(F)(F)F (stereo not shown) [II-21, 2,N-Dimethyl-2-(3,3,4,4,4-pentafluoro-butane-1-sulfonyl)-4-trifluoromethylsulfanyl-butyramide] | > 90 | – | > 90 | –
20 | – | CN(C)C(=O)C(C)(CCSC(F)(F)F)S(=O)(=O)CCC(F)(F)C(F)(F)F (stereo not shown) [II-22, 2,N,N-Trimethyl-2-(3,3,4,4,4-pentafluoro-butane-1-sulfonyl)-4-trifluoromethylsulfanyl-butyramide] | > 90 | < 5 | > 90 | mortality at 2500 ppm (Myzus persicae; [2]): > 90%; mortality at 2500 ppm (Megoura viciae; [3]): > 90%
21 | – | CC(CCSC(F)(F)F)(C(N)=S)S(=O)(=O)CCC(F)(F)C(F)(F)F (stereo not shown) [II-23, 2-Methyl-2-(3,3,4,4,4-pentafluoro-butane-1-sulfonyl)-4-trifluoromethylsulfanyl-thiobutyramide] | > 90 | – | > 90 | mortality at 2500 ppm (Heliothis virescens; [1]): > 90%
22 | – | N#CC(CCSC(F)(F)F)S(=O)(=O)CCC(F)(F)C(F)(F)C(F)(F)F (stereo not shown) [II-24, 2-(3,3,4,4,5,5,5-Heptafluoro-pentane-1-sulfonyl)-4-trifluoromethylsulfanyl-butyronitrile] | – | – | – | mortality at 2500 ppm (Myzus persicae): > 90%; mortality at 2500 ppm (Megoura viciae): > 90%; mortality at 2500 ppm (Anthonomus grandis): > 90%
23 | – | CC(C#N)(CCSC(F)(F)F)S(=O)(=O)CCC(F)(F)C(F)(F)C(F)(F)F (stereo not shown) [II-25, 2-(3,3,4,4,5,5,5-Heptafluoro-pentane-1-sulfonyl)-2-methyl-4-trifluoromethylsulfanyl-butyronitrile] | – | – | – | mortality at 2500 ppm (Ceratitis capitata): > 90%; mortality at 2500 ppm (Heliothis virescens): > 90%; mortality at 2500 ppm (Myzus persicae): > 90%; mortality at 2500 ppm (Megoura viciae): > 90%; mortality at 2500 ppm (Anthonomus grandis): > 90%
24 | – | CC(C#N)(CCSC(F)(F)F)S(=O)(=O)CCSC(F)(F)F (stereo not shown) [II-26, 2-Methyl-4-trifluoromethylsulfanyl-2-(2-trifluoromethylsulfanyl-ethanesulfonyl)-butyronitrile] | – | – | > 90 | –
